Data published in US20100298141A1, “SUBSTITUTED PYRIDINE N-OXIDE HERBICIDES” (E. I. DU PONT DE NEMOURS AND COMPANY, priority 2007, published 2010).

What was measured:
crabgrass = assay: Test A pre-/postemergence greenhouse test; format: in vivo, Digitaria sanguinalis; conditions: for Crabgrass, Large plant response rating: 0 to 100 scale
Procedure, shortened: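 Greenhouse herbicide screen, pre- and postemergence in parallel. Soil: loam plus sand. Formulation: non-phytotoxic solvent mix with surfactant. Postemergence stage: one to two leaves, 2–10 cm height. Evaluation: visual injury, compared with untreated controls, about 10 days after treatment.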

downy brome = assay: Test C pre-/postemergence test; format: in vivo, Bromus tectorum; conditions: for Plant response rating, Bromegrass, Downy: scale 0 to 100, 0 no effect, 100 complete control
Excerpt: (§1) Seeds of plant species selected from blackgrass (Alopecurus myosuroides), downy brome (Bromus tectorum), green foxtail (Setaria viridis), Italian ryegrass (Lolium multiflorum), wheat (Triticum aestivum), wild oat (Avena fatua), catchweed bedstraw (Galium aparine), Russian thistle (Salsola kali), […] (Cynodon dactylon), Surinam grass (Brachiaria decumbens), cocklebur (Xanthium strumarium), corn (Zea mays), crabgrass (Digitaria sanguinalis), woolly cupgrass (Eriochloa villosa), giant foxtail (Setaria faberii), Goosegrass (Eleusin indica), johnsongrass (Sorghum halepense), kochia (Kochia scoparia), lambsquarters (Chenopodium album), morningglory (Ipomoea coccinea), eastern black nightshade (Solanum ptycanthum), yellow nutsedge (Cyperus esculentus), pigweed (Amaranthus retroflexus), common ragweed (Ambrosia elation), soybean (Glycine max), common (oilseed) sunflower (Helianthus annuus), and velvetleaf (Abutilon theophrasti) were planted and treated preemergence with test chemicals formulated in a non-phytotoxic solvent mixture which included a surfactant. At the same time, plants selected from these crop and weed species and also winter barley (Hordeum vulgare), canarygrass (Phalaris minor), and chickweed (Stellaria media) were treated with postemergence applications of some of the test chemicals formulated in the same manner. Plants ranged in height from 2 to 18 cm (1- to 4-leaf stage) for postemergence treatments. […] At time of treatment, test pots were flooded to 3 cm above the soil surface, treated by application of test compounds directly to the paddy water, and then maintained at that water depth for the duration of the test. […] A dash (-) response means no test result.

catchweed bedstraw = assay: Test C pre-/postemergence test; format: in vivo, Galium aparine
Excerpt: as §1

Surinam grass = assay: Test F preemergence test; format: in vivo, Brachiaria decumbens; conditions: scale 0 to 100
Excerpt: (§2) Seeds of plant species selected from bermudagrass (Cynodon dactylon), Surinam grass (Brachiaria decumbens), large crabgrass (Digitaria sanguinalis), green foxtail (Setaria viridis), goosegrass (Eleusine indica), johnsongrass (Sorghum halepense), kochia (Kochia scoparia), pitted morningglory (Ipomoea lacunosa), purple nutsedge (Cyperus rotundus), common ragweed (Ambrosia elation), mustard (Brassica nigra), guineagrass (Panicum maximum), […] (Paspalum dilatatum), barnyardgrass (Echinochloa crus-galli), southern sandbur (Cenchrus echinatus), common sowthistle (Sonchus oleraceous), prickly […] spinosa), Italian ryegrass (Lolium multiflorum), common purslane (Portulaca oleracea), broadleaf signalgrass (Brachiaria platyphylla), common groundsel (Senecio vulgaris), common chickweed (Stellaria media), Virginia dayflower (Commelina virginica), annual bluegrass (Poa annua), naked crabgrass (Digitaria nuda), […] cochinchinensis), quackgrass (Elytrigia repens), Canada horseweed (Conyza canadensis), field bindweed (Convolvulus arvensis), […] (Bidens bipinnata), common mallow (Malva sylvestris), Russian thistle (Salsola kali), and sugarcane (Saccharum officinarum) were planted and treated preemergence with test chemicals formulated in a non-phytotoxic solvent mixture which included a surfactant. At a different time, sugarcane was treated with postemergence applications of some of the test chemicals formulated in the same manner. Plants were approximately 3- to 4-leaf stage for the postemergence treatments. Treated plants and controls were maintained in a greenhouse for 14 to 21 days, after which time all species were compared to controls and visually evaluated. […] A dash (-) response means no test result.

large crabgrass = assay: Test F preemergence test; format: in vivo, Digitaria sanguinalis; conditions: scale 0 to 100
Excerpt: as §2

green foxtail = assay: Test F preemergence test; format: in vivo, Setaria viridis; conditions: scale 0 to 100
Excerpt: as §2

goosegrass = assay: Test F preemergence test; format: in vivo, Eleusine indica; conditions: scale 0 to 100
Excerpt: as §2

johnsongrass = assay: Test F preemergence test; format: in vivo, Sorghum halepense; conditions: scale 0 to 100
Excerpt: as §2

southern sandbur = assay: Test F preemergence test; format: in vivo, Cenchrus echinatus; conditions: scale 0 to 100
Excerpt: as §2

Italian ryegrass = assay: Test F preemergence test; format: in vivo, Lolium multiflorum; conditions: scale 0 to 100
Excerpt: as §2

itchgrass = assay: Test F preemergence test; format: in vivo, Rottboellia cochinchinensis; conditions: scale 0 to 100
Excerpt: as §2

field bindweed = assay: Test F preemergence test; format: in vivo, Convolvulus arvensis; conditions: scale 0 to 100
Excerpt: as §2

[1] = 31 g ai/ha, Preemergence, scale 0 to 100
[2] = 62 g ai/ha, preemergence, scale 0 (no effect) to 100 (complete control)
[3] = preemergence, 125 g ai/ha, scale 0 (no effect) to 100 (complete control)

## Cc1cc[n+]([O-])c([S+]([O-])Cc2c(C(F)(F)F)nn(C)c2OC(F)F)c1 (stereo not shown) [Compound 1]
crabgrass; Postemergence, 125 g ai/ha, 0 is no effect, 100 is complete control
  Crabgrass, Large plant response rating: 60
crabgrass; Postemergence, 500 g ai/ha, 0 is no effect, 100 is complete control
  Crabgrass, Large plant response rating: 90
crabgrass; Preemergence, 125 g ai/ha, 0 no effect, 100 complete control
  Crabgrass, Large plant response rating: 100
crabgrass; Preemergence, 500 g ai/ha, 0 to 100 scale where 0 is no effect and 100 is complete control
  Plant response rating, Crabgrass, Large: 100
Downy brome; [1]
  Bromegrass, Downy plant response rating: 0
Downy brome; [2]
  Bromegrass, Downy plant response rating: 50
Downy brome; Postemergence, 31 g ai/ha
  Plant response rating (0 to 100), Bromegrass, Downy: 0
Downy brome; Postemergence, 62 g ai/ha
  Plant response rating, Bromegrass, Downy: 0
Downy brome; Postemergence, 125 g ai/ha
  Plant response rating, Bromegrass, Downy: 0
Downy brome; Postemergence, 250 g ai/ha
  Plant response rating, Bromegrass, Downy: 0
Downy brome; Preemergence, 250 g ai/ha
  Plant response rating (0 to 100), Bromegrass, Downy: 100
Downy brome; [3]
  Bromegrass, Downy plant response rating: 100
Catchweed bedstraw; [1]
  Galium plant response rating: 70
Catchweed bedstraw; [2]
  Galium plant response rating: 85
Catchweed bedstraw; Preemergence, 250 g ai/ha
  Plant response rating (0 to 100), Galium: 98
Catchweed bedstraw; [3]
  Galium plant response rating: 98
Surinam grass; 8 g ai/ha, preemergence
  Plant response rating, Surinam Grass: 0
Surinam grass; 16 g ai/ha, preemergence
  Plant response rating, Surinam Grass: 0
Surinam grass; 62 g ai/ha, Preemergence
  Surinam Grass plant response rating: 90
Surinam grass; Preemergence, 31 g ai/ha
  Plant response rating, Surinam Grass: 0
Large crabgrass; 8 g ai/ha, preemergence
  Plant response rating, Crabgrass, Large: 0
Large crabgrass; 62 g ai/ha, Preemergence
  Crabgrass, Large plant response rating: 95
Large crabgrass; Preemergence, 16 g ai/ha
  Plant response rating, Crabgrass, Large: 20
Large crabgrass; Preemergence, 31 g ai/ha
  Plant response rating, Crabgrass, Large: 70
Green foxtail; 8 g ai/ha, preemergence
  Plant response rating, Foxtail, Green: 0
Green foxtail; 62 g ai/ha, Preemergence
  Foxtail, Green plant response rating: 100
Green foxtail; Preemergence, 16 g ai/ha
  Plant response rating, Foxtail, Green: 60
Green foxtail; Preemergence, 31 g ai/ha
  Plant response rating, Foxtail, Green: 80
goosegrass; 8 g ai/ha, preemergence
  Plant response rating, Goosegrass: 25
goosegrass; 62 g ai/ha, Preemergence
  Goosegrass plant response rating: 95
goosegrass; Preemergence, 16 g ai/ha
  Plant response rating, Goosegrass: 70
goosegrass; Preemergence, 31 g ai/ha
  Plant response rating, Goosegrass: 80
johnsongrass; 8 g ai/ha, preemergence
  Plant response rating, Johnsongrass: 35
johnsongrass; 62 g ai/ha, Preemergence
  Johnsongrass plant response rating: 90
johnsongrass; Preemergence, 16 g ai/ha
  Plant response rating, Johnsongrass: 70
johnsongrass; Preemergence, 31 g ai/ha
  Plant response rating, Johnsongrass: 90
Southern sandbur; 8 g ai/ha, preemergence
  Plant response rating, Sandbur: 0
Southern sandbur; 16 g ai/ha, preemergence
  Plant response rating, Sandbur: 30
Southern sandbur; 62 g ai/ha, Preemergence
  Sandbur plant response rating: 80
Southern sandbur; Preemergence, 31 g ai/ha
  Plant response rating, Sandbur: 60
Italian ryegrass; 8 g ai/ha, preemergence
  Plant response rating, Ryegrass, Italian: 0
Italian ryegrass; 62 g ai/ha, Preemergence
  Ryegrass, Italian plant response rating: 90
Italian ryegrass; Preemergence, 16 g ai/ha
  Plant response rating, Ryegrass, Italian: 0
Italian ryegrass; Preemergence, 31 g ai/ha
  Plant response rating, Ryegrass, Italian: 60
itchgrass; 8 g ai/ha, preemergence
  Plant response rating, Itchgrass: 0
itchgrass; 62 g ai/ha, Preemergence
  Itchgrass plant response rating: 90
itchgrass; Preemergence, 16 g ai/ha
  Plant response rating, Itchgrass: 60
itchgrass; Preemergence, 31 g ai/ha
  Plant response rating, Itchgrass: 70
Field bindweed; 8 g ai/ha, preemergence
  Plant response rating, Field Bindweed: 0
Field bindweed; 62 g ai/ha, Preemergence
  Field Bindweed plant response rating: 75
Field bindweed; Preemergence, 16 g ai/ha
  Plant response rating, Field Bindweed: 0
Field bindweed; Preemergence, 31 g ai/ha
  Plant response rating, Field Bindweed: 50
